Data: patent publication US20240279174A1, “ANTIBIOTICS COMPRISING LPXH-TARGETING COMPOUNDS AND METHODS OF MAKING AND USING THE SAME” (Duke University, priority 2019, published 2024)
Values after ≈ are worked out from the molar mass of the structure shown. Where two headings read alike, the source gives them in different places.

How the values were obtained:
[1] = target: K. pneumoniae LpxH (KpLpxH) (Klebsiella pneumoniae subsp. pneumoniae (strain ATCC 700721 / MGH 78578), UniProt A6T5R0); experiment: LpxE-coupled malachite green LpxH activity assay (KpLpxH inhibition); assay type: biochemical; details: for remaining activity at 0.1 µM / inhibition at 0.1 µM / Percentage Activity of KpLpxH (vi/v0): 0.1 μM inhibitor; for remaining activity at 0.1 µM / Percentage Activity of KpLpxH (vi/v0): normalized against KpLpxH activity in 10% DMSO; for remaining activity at 0.1 µM: read-out: Percentage Activity of KpLpxH (vi/v0); for inhibition at 0.1 µM: read-out: Percentage Inhibition of KpLpxH
Experimental: Evaluation of LpxH inhibition by analogs: After completing the synthesis of sulfonyl piperazine compounds with various forms of linkers, the KpLpxH inhibition was biochemically characterized by these analogs at 0.1 μM using the nonradioactive, colorimetric malachite green assay that we had previously reported. […] Such an enhanced potency requires the presence of the hydroxamate group, as its substitution with a carboxylate group in compound 7 reduced the compound activity (vi/v0=30±6%).
The LpxE-coupled LpxH activity assay was conducted as described previously using the GB1-K. pneumoniae LpxH-His10 fusion protein. Briefly, two reaction mixtures were prepared. Mixture 1 contains 20 mM Tris-HCl (pH 8.0), 0.5 mg/mL BSA, 0.02% Triton X-100, 1 mM MnCl2, 1 mM DTT, 10% DMSO, and 200 µM substrate (UDP-DAGn), and mixture 2 is comprised of the same buffer, but instead of substrate, contains both LpxH (20 ng/ml) and 2× inhibitor. These mixtures were then pre-incubated at 37° C. for 10 min. To initiate the reaction, an equal volume of the LpxH mixture (mixture 2) was added to the substrate mixture (mixture 1) at 37° C. The final reaction solution contains 100 μM substrate, 10 ng/ml enzyme, and 1× inhibitor. At the desired reaction time points, an aliquot of 20 μL reaction mixture was removed and added to a well in 96-well half-area plate containing 5 mM EDTA (final concentration) to quench the LpxH reaction. Purified Aquifex aeolicus LpxE was then added to a final concentration of 5 μg/mL. The plate was incubated at 37° C. for 30 min followed by addition of formic acid to a final concentration of 3.75 M to quench the LpxE reaction. The malachite green reagent (Sigma Aldrich, catalog MAK307) was diluted 5-fold into the solutions, and the plate was incubated for 30 min at room temperature before the absorbance at 620 nm was measured. All measurements were done in triplicates, and standard error (S.E.) was calculated.

[2] = tested on: K. pneumoniae (ATCC 10031); experiment: MIC assay (broth microdilution), K. pneumoniae; assay type: cell-based; details: Klebsiella pneumoniae, ATCC10031
Experimental: The MIC assay protocol was adapted from the broth microdilution methods described by the National Committee for Clinical Laboratory Standards using 96-well plates as described previously. In brief, overnight bacterial cultures were diluted to an OD600 of 0.006 in cation-adjusted Mueller-Hinton medium containing 7% DMSO and incubated at 37° C. for 22 h in the presence of varying concentrations of inhibitors. Following overnight incubation, each well is treated with 10 μL of 3-(4,5-dimethylthiazol-2-yl)-2,5-diphenyltetrazolium bromide (MTT, 5 mg/mL) for 3 h. Finally, the culture is solubilized by addition of 2-propanol, and the results are read by taking the difference of the UV reading at both 570 and 690 nm. MIC values were reported as the lowest compound concentration that inhibited bacterial growth. The baseline for inhibited cell growth was determined to be <4× the average control reading due to the baseline optical density of the initial starting bacterial culture.

[3] = Table 5, read-out: IC50: Average
[4] = Table 4, read-out: MIC - K. pneumoniae (ATCC 10031)
[5] = K. pneumoniae (ATCC 10031), in vitro, read-out: MIC

CC(=O)N1CCc2cc(S(=O)(=O)N3CCN(c4cc(F)cc(C(F)(F)F)c4)CC3)ccc21 [JH-LPH-28]
IC50 [1, 3]: 139 nM | MIC [2, 4]: 3 µg/mL (≈ 6.36 µM)

O=C(CCCCNC(=O)Nc1ccc(S(=O)(=O)N2CCN(c3cc(Cl)cc(C(F)(F)F)c3)CC2)cc1)NO [JH-LPH-41]
remaining activity at 0.1 µM [1]: 36% | inhibition at 0.1 µM [1]: 64% | IC50 [1, 3]: 73 nM | MIC [2, 4]: 10.7 µg/mL (≈ 18.5 µM)

CC(=O)n1ccc2cc(S(=O)(=O)N3CCN(c4cc(Cl)cc(C(F)(F)F)c4)CC3)ccc21 [JH-LPH-42]
MIC [2, 4]: > 64 µg/mL

O=C(CCCCNC(=O)N1CCc2cc(S(=O)(=O)N3CCN(c4cc(Cl)cc(C(F)(F)F)c4)CC3)ccc21)NO [JH-LPH-45]
IC50 [1]: 18 nM | Ki [1]: 7.3 nM | Percentage Activity of KpLpxH (vi/v0) ([1]; listed as 8 (JH-LPH-45)): 18 ± 1% | remaining activity at 0.1 µM [1]: 18 ± 1% | inhibition at 0.1 µM [1]: 82% | IC50 [1, 3]: 17 nM | MIC [2, 5]: 18.7 µg/mL (≈ 31 µM) | MIC [2, 4]: 18.7 µg/mL (≈ 30.9 µM)

O=C(CCCCCC(=O)N1CCc2cc(S(=O)(=O)N3CCN(c4cc(Cl)cc(C(F)(F)F)c4)CC3)ccc21)NO [JH-LPH-46]
Percentage Activity of KpLpxH (vi/v0) ([1]; listed as 10 (JH-LPH-46)): 93 ± 7% | remaining activity at 0.1 µM [1]: 93 ± 7% | inhibition at 0.1 µM [1]: 7%

CS(=O)(=O)N1CCc2cc(S(=O)(=O)N3CCN(c4cc(Cl)cc(C(F)(F)F)c4)CC3)ccc21 [JH-LPH-47]
MIC [2, 4]: > 64 µg/mL

CC(=O)N1CCc2cc(S(=O)(=O)N3CCN(c4cc(Br)cc(C(F)(F)F)c4)CC3)ccc21 [JH-LPH-48]
IC50 [1, 3]: 49 nM | MIC [2, 4]: > 64 µg/mL

CC(=O)N1CCc2cc(S(=O)(=O)N3CCN(c4cc(C)cc(C(F)(F)F)c4)CC3)ccc21 [JH-LPH-49]
IC50 [1, 3]: 152 nM | MIC [2, 4]: 18.7 µg/mL (≈ 39.9 µM)

O=C(CCCCCNC(=O)Nc1ccc(S(=O)(=O)N2CCN(c3cc(Cl)cc(C(F)(F)F)c3)CC2)cc1)NO [JH-LPH-50]
Ki [1]: 3.1 nM | Percentage Activity of KpLpxH (vi/v0) ([1]; listed as 13 (JH-LPH-50)): 3 ± 2% | remaining activity at 0.1 µM [1]: 3 ± 2% | inhibition at 0.1 µM [1]: 97% | IC50 ([1]; IC50 curves FIG. 3E/4E, read-out: IC50 of KpLpxH inhibition): 7.7 nM | IC50 [1, 3]: 8 nM | MIC [2, 5]: 3.3 µg/mL (≈ 5.57 µM) | MIC [2, 4]: 3.33 µg/mL (≈ 5.62 µM)

O=C(O)CCCCCNC(=O)Nc1ccc(S(=O)(=O)N2CCN(c3cc(Cl)cc(C(F)(F)F)c3)CC2)cc1 [JH-LPH-54]
Percentage Activity of KpLpxH (vi/v0) ([1]; listed as 12 (JH-LPH-54)): 57 ± 3% | remaining activity at 0.1 µM [1]: 57 ± 3% | inhibition at 0.1 µM [1]: 43%

O=C(O)CCCCNC(=O)N1CCc2cc(S(=O)(=O)N3CCN(c4cc(Cl)cc(C(F)(F)F)c4)CC3)ccc21 [JH-LPH-55]
Percentage Activity of KpLpxH (vi/v0) ([1]; listed as 7 (JH-LPH-55)): 30 ± 6% | remaining activity at 0.1 µM [1]: 30 ± 6% | inhibition at 0.1 µM [1]: 70%

O=C(NCCCCc1cccn(O)c1=S)Nc1ccc(S(=O)(=O)N2CCN(c3cc(Cl)cc(C(F)(F)F)c3)CC2)cc1 [JH-LPH-60]
Percentage Activity of KpLpxH (vi/v0) ([1]; listed as 15 (JH-LPH-60)): 39 ± 6% | remaining activity at 0.1 µM [1]: 39 ± 6% | inhibition at 0.1 µM [1]: 61%

O=C(NCCn1cc(C(=O)O)nn1)Nc1ccc(S(=O)(=O)N2CCN(c3cc(Cl)cc(C(F)(F)F)c3)CC2)cc1 [JH-LPH-61]
MIC [2, 4]: > 64 µg/mL

O=C(NCCn1cc(C(=O)NO)nn1)Nc1ccc(S(=O)(=O)N2CCN(c3cc(Cl)cc(C(F)(F)F)c3)CC2)cc1 [JH-LPH-62]
Percentage Activity of KpLpxH (vi/v0) ([1]; listed as 20 (JH-LPH-62)): 59 ± 7% | remaining activity at 0.1 µM [1]: 59 ± 7% | inhibition at 0.1 µM [1]: 41% | MIC [2, 4]: 24 µg/mL (≈ 38.9 µM)

O=C(/C=C/CCCNC(=O)Nc1ccc(S(=O)(=O)N2CCN(c3cc(Cl)cc(C(F)(F)F)c3)CC2)cc1)NO [JH-LPH-64]
Percentage Activity of KpLpxH (vi/v0) ([1]; listed as 18 (JH-LPH-64)): 34 ± 7% | remaining activity at 0.1 µM [1]: 34 ± 7% | inhibition at 0.1 µM [1]: 66% | MIC [2, 4]: 20 µg/mL (≈ 33.9 µM)

O=C(CC/C=C/CCC(=O)Nc1ccc(S(=O)(=O)N2CCN(c3cc(Cl)cc(C(F)(F)F)c3)CC2)cc1)NO [JH-LPH-66]
MIC [2, 4]: 26.7 µg/mL (≈ 45.3 µM)

O=C(CCCCCCC(O)Cn1cncn1)Nc1ccc(S(=O)(=O)N2CCN(c3cc(Cl)cc(C(F)(F)F)c3)CC2)cc1 (stereo not drawn) [JH-LPH-68]
MIC [2, 4]: 28 µg/mL (≈ 43.5 µM)

NCC(=O)N1CCc2cc(S(=O)(=O)N3CCN(c4cc(Cl)cc(C(F)(F)F)c4)CC3)ccc21 [JH-LPH-71]
MIC [2, 4]: 8 µg/mL (≈ 15.9 µM)

CN(C)CC(=O)N1CCc2cc(S(=O)(=O)N3CCN(c4cc(Cl)cc(C(F)(F)F)c4)CC3)ccc21 [JH-LPH-72]
MIC [2, 4]: > 64 µg/mL

O=C(CCCn1cc(C(=O)Nc2ccc(S(=O)(=O)N3CCN(c4cc(Cl)cc(C(F)(F)F)c4)CC3)cc2)nn1)NO [JH-LPH-74]
MIC [2, 4]: > 64 µg/mL

NC(=O)N1CCc2cc(S(=O)(=O)N3CCN(c4cc(Cl)cc(C(F)(F)F)c4)CC3)c(F)cc21 [JH-LPH-75]
MIC [2, 4]: > 64 µg/mL

NC(=O)N1CCc2cc(S(=O)(=O)N3CCN(c4cc(Cl)cc(C(F)(F)F)c4)CC3)c(Cl)cc21 [JH-LPH-76]
MIC [2, 4]: > 64 µg/mL

CS(=O)(=O)Nc1ccc(S(=O)(=O)N2CCN(c3cc(Cl)cc(C(F)(F)F)c3)CC2)cc1 [JH-LPH-77]
MIC [2, 4]: > 64 µg/mL

O=C(COCc1ccc2nonc2c1)N1CCc2cc(S(=O)(=O)N3CCN(c4cc(Cl)cc(C(F)(F)F)c4)CC3)ccc21 [JH-LPH-79]
IC50 [1, 3]: 37 nM

O=C(NO)c1ccc(-c2ccccc2C(=O)Nc2ccc(S(=O)(=O)N3CCN(c4cc(Cl)cc(C(F)(F)F)c4)CC3)cc2)cc1 [JH-LPH-80]
IC50 [1, 3]: 431 nM

CC(=O)N1CCc2cc(S(=O)(=O)N3CCN(C4CCCCC4)CC3)ccc21 [JH-LPH-81]
MIC [2, 4]: 32 µg/mL (≈ 81.7 µM)

CCOC(=O)c1ccc(N2CCN(S(=O)(=O)c3ccc4c(c3)CCN4C(C)=O)CC2)cc1 [JH-LPH-82]
MIC [2, 4]: > 64 µg/mL

C/C=C/CN1CCN(S(=O)(=O)c2ccc3c(c2)CCN3C(C)=O)CC1 [JH-LPH-83]
MIC [2, 4]: 64 µg/mL (≈ 176 µM)

CCCCN1CCN(S(=O)(=O)c2ccc3c(c2)CCN3C(C)=O)CC1 [JH-LPH-84]
MIC [2, 4]: 32 µg/mL (≈ 87.6 µM)

CC(=O)N1CCc2cc(S(=O)(=O)N3CCN(c4nc(C(F)(F)F)cs4)CC3)ccc21 [JH-LPH-85]
MIC [2, 4]: 12 µg/mL (≈ 26.1 µM)

CC(=O)N1CCc2cc(S(=O)(=O)N3CCN(c4cc(C(F)(F)F)ccn4)CC3)ccc21 [JH-LPH-86]
MIC [2, 4]: 0.125 µg/mL (≈ 0.275 µM)

NC(=O)N1CCc2cc(S(=O)(=O)N3CCN(c4cccc(C(F)(F)F)n4)CC3)ccc21 [JH-LPH-94]
MIC [2, 4]: > 64 µg/mL

NCCNC(=O)N1CCc2cc(S(=O)(=O)N3CCN(c4cc(C(F)(F)F)cc(Cl)n4)CC3)ccc21 [JH-LPH-95]
MIC [2, 4]: 4 µg/mL (≈ 7.51 µM)

NCCCNC(=O)N1CCc2cc(S(=O)(=O)N3CCN(c4cc(C(F)(F)F)cc(Cl)n4)CC3)ccc21 [JH-LPH-98]
IC50 [1, 3]: 24 nM

NCCCCNC(=O)N1CCc2cc(S(=O)(=O)N3CCN(c4cc(C(F)(F)F)cc(Cl)n4)CC3)ccc21 [JH-LPH-99]
IC50 [1, 3]: 11 nM
